Where two headings read alike, the source gives them in different places.
Legend:
Format in all cases: cell-based, guinea pig (Hartley strain)
[1] = system: SRS-A release from lung fragments; experiment: Inhibition of SRS-A release from sensitized guinea pig lung fragments; conditions: Cavia porcellus
Protocol: (§1) Inhibitory activities on the release of SRS-A and histamine of the present compounds were determined.
(§2) A male guinea pig (Hartley strain) (body weight: about 300 g) was sensitized by a method according to P. Anderson: "Int. Archs. Allergey appln. Immunol., Vol. 64, pages 249-258 (1981). Thus, 30 mg/kg of cyclophosphamide was intraperitoneally administered to the guinea pig, and 2 days after 1 microgram of ovalbumin (manufactured by Sigma Chemical Co., St. Louis, Mo. U. S. A.) together with 10 mg of aluminium hydroxide gel were intraperitoneally administered so as to have the animal sesitized.
(§3) 50 Days after the sesitization, the animal was killed by exsanguination, and the lung was isolated from the animal and was perfused with 20 ml of Tyrode's solution, then immersed in an ice-cooled Tyrode's solution. The parenchyma of the lung was cut by using McIlwain-type tissue chopper to make it into fragments of lung having 2 mm square and the fragments were washed with Tyrode's solution. 400 Milligrams of sectiles of lung were suspended in 3.6 ml of Tyrode's solution, and this suspension was preincubated at 37° C. for 5 minutes, then 4 microliters of dimethyl sulfoxide solution of the test compound, in the case of control 4 microliters of dimethyl sulfoxide alone was added to the suspension. 5 Minutes after, 0.4 ml of 100 micrograms/ml of ovalbumin solution added so as to release SRS-A for 10 minutes. The suspension was ice-cooled and filtered through gauze, the filtrate was centrifuged at 2,000 rpm for 10 minutes and the supernatant was collected. The supernatant was stored in freezed state at -80° C. until bio-assay was conducted.
(§4) Amounts of SRS-A and histamine contained in the supernatant were determined by bio-assay using ileum of guinea pig.
(§5) A piece of the ileum (2-3 cm of length) positioned from 15-25 cm from the opening portion of ileocecum was isolated from a male guinea pig (Hartley strain) (body weight: 400-600 g) which was fasted for 24 hours. The piece of ileum was hanged vertically in a Magnus tube which was filled with 10 ml of Tyrode's solution containing 10^-7 M of atropine sulfate under air stream conditions. The isotonic contraction of the piece of the ileum was measured at 0.5 g of load by using an isotonic transducer "TD-112S" (manufactured by Nihon Koden Co., Ltd.). The measurements were carried out after the reaction to histamine of the piece of ileum was kept constant. Bioassay of histamine was measured by using the value of contraction shown in 30 seconds after the addition of the supernatant. Bioassay of on SRS-A was measured by using the value of contraction shown at 2 minutes after the addition of the supernatant in the presence of 10^-6 M of pyrilamine (manufactured by Sigma Chemical Co.), and compared with the standard curve of crude SRS-A released from the fragments of the lung.

5-lipoxygenase = target: T1, 5-lipoxygenase (Cavia porcellus, UniProt A0A286X958); experiment: 5-Lipoxygenase inhibitory activity (conversion of 14C-arachidonic acid to 5-HETE) in guinea pig peritoneal exudate cells; conditions: read-out: inhibition ratio (%) of 5-lipoxygenase activity; for inhibition at 0.3 µM: concentration 3 × 10^-7 M; for inhibition at 1 µM: concentration 10^-6 M; for inhibition at 0.1 µM: concentration 10^-7 M; for inhibition at 3 µM: concentration 3 × 10^-6 M; for inhibition at 10 µM: concentration 10^-5 M
T1 construct: endogenous in cells; host or cells: guinea pig (Hartley strain) casein-elicited peritoneal exudate cells, intact cell suspension
T1 sequence (A0A286X958 1-674): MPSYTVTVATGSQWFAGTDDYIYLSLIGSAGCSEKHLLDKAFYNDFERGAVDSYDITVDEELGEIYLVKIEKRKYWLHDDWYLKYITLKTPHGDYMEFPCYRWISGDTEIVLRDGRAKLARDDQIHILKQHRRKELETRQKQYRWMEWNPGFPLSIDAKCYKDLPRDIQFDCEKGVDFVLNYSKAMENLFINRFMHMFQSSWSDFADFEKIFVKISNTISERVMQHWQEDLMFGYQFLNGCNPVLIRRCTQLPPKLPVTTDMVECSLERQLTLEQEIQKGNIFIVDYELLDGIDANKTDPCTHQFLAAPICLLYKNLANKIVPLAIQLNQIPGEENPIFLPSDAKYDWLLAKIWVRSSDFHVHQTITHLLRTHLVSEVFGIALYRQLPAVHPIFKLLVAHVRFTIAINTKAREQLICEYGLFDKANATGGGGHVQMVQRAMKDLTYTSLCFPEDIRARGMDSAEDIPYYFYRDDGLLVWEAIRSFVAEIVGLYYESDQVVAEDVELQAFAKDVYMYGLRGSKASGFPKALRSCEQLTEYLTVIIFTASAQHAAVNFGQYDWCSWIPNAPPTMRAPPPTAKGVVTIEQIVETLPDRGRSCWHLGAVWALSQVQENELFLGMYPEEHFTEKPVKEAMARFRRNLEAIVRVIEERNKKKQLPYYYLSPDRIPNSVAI
Protocol: 5-Lipoxygenase inhibitory activity of the present compounds was determined by a method according to procedures described in "J. Biol. Chem., Vol. 256, pages 4156-4159, (1981, Ibid. Vol. 258, pages 5754-5758 (1983).
(1) Preparation of Test Cells
A guinea pig (Hartley strain) (500-650 g body weight) was intraperitoneally administered with 2%-casein solution in 3/50 the volume of body weight. 14 Hours after the administration, the animal was sacrificed by bleeding and the peritoneal cavity was washed with Dulbecco's phosphate buffered saline (PBS) containing 3 U/ml of heparin and the exudate cells were harvested. The sample of cells was washed twice with Dulbecco's PBS (-), then the cells were suspended in Dulbecco's PBS (-), containing 1 mM of calcium chloride and 5.5 mM of glucose, so as to make a suspension having the concentration of 2.5×10^7 cells/ml.
To 0.2 ml of the above-mentioned cell suspension was added 10^-5 M of Indomethacine, and incubated at 30° C. for 2 minutes. Each of the appropriate concentrations of test compounds was added to the suspension respectively, further incubated for 2 minutes. Next, 10 μm of Ionophore A23187 (manufactured by Calbiochem-Behring, San Diego, Calif., U. S. A) was added to the suspension, further, 10 μm of ^14 C-arachidonic acid (manufactured by Amersham Japan, Ltd., Tokyo, Japan) was added and initiated the reaction. 3 Minutes after the initiation of the reaction, 0.1 ml of 0.2M-citric acid was added so as to terminate the reaction. 1.2 Milliliters of ethyl acetate was added to the reaction mixture and shaked for 5 minutes. The reaction mixture was centrifuged at 3,000 rpm for 5 minutes so as to separate the organic layer from the aqueous layer. 1 Milliliter of the organic layer (the upper layer) was dehydrated by passing through a mini-column packed with anhydrous sodium sulfate. The dehydrated organic layer was dried under nitrogen gas stream. The residue obtained was dissolved in ethyl acetate, and the total amount of the ethyl acetate solution was spotted onto thin layer chromochromatography (TCL) plate (Art. 11845 manufactured by E. Merck A. G.). The TCL was carried out with a mixed solvent of diethyl ether:petroleum:ether:acetic acid (50:50:1 volume/volume), then the radioactive metabolites on the plate were detected by using "Ultrafilm ^3 H" (a trademark for a X-ray film, manufactured by LKB Co.). Each fractions corresponding to the metabolites was scraped in to a scintillation vial, and 5 ml of "Scintilator ACS-II" (manufactured by Amersham Japan, Ltd.), was added then the radio-activity was determined by means of a liquid scintillation counter.

[2] = system: histamine release from lung fragments; experiment: Inhibition of histamine release from sensitized guinea pig lung fragments; conditions: Cavia porcellus, read-out: Inhibition ratio (%) Histamine; for inhibition at 3 µM: Table 2, dose 3 μM; for inhibition at 30 µM: Table 2, dose 30 μM
Protocol: as §1, §2, §3, §4, §5

[3] = Table 2, dose 3 μM, read-out: Inhibition ratio (%) SRS-A
[4] = Table 2, dose 30 μM, read-out: Inhibition ratio (%) SRS-A
[5] = Table 2B, 3 μM, read-out: Inhibitory activities on SRS-A (%)
[6] = Table 2B, 30 μM, read-out: Inhibitory activities on SRS-A (%)

| SMILES | inhibition at 3 µM [1, 3] [%] | inhibition at 30 µM [1, 4] [%] | inhibition at 3 µM [1, 5] [%] | inhibition at 30 µM [1, 6] [%] | inhibition at 0.3 µM (5-lipoxygenase) [%] | inhibition at 1 µM (5-lipoxygenase) [%] | inhibition at 0.1 µM (5-lipoxygenase) [%] | inhibition at 3 µM [2] [%] | inhibition at 30 µM [2] [%] | inhibition at 3 µM (5-lipoxygenase) [%] | inhibition at 10 µM (5-lipoxygenase) [%] |
| --- | --- | --- | --- | --- | --- | --- | --- | --- | --- | --- | --- |
| COC1=CC(=O)C(OC)=C(CCCCCCCC2=C(OC)C(=O)C=C(OC)C2=O)C1=O [Test Compound No. 11, 2,2'-Heptamethylenebis(3,6-dimethoxy-1,4-benzoquinone)] | 32.5 | 85.7 | 32.5 | 85.7 | 64 | 88 | 44 | -8.4 | -3.6 |  |  |
| COC1=CC(=O)C(OC)=C(CCCCCCC2=C(OC)C(=O)C=C(OC)C2=O)C1=O [Test Compound No. 10, 2,2'-Hexamethylenebis(3,6-dimethoxy-1,4-benzoquinone)] | 73.4 | > 95.2 |  |  | 58 | 81 | 17 | 20.6 | 22.4 |  |  |
| COC1=C(CCO)C(=O)C(OC)=C(CCCCCC2=C(OC)C(=O)C(CCO)=C(OC)C2=O)C1=O [Test Compound No. 19, 5,5'-Pentamethylenebis[2-(2-hydroxyethyl)-3,6-dimethoxy-1,4-benzoquinone]] | 40.6 | 76.6 | 40.6 | 76.6 | 74 | 87 | 48 |  |  |  |  |
| COC1=CC(=O)C(OC)=C(CCCCCCCCCCCCC2=C(OC)C(=O)C=C(OC)C2=O)C1=O [Test Compound No. 15, 2,2'-Dodecamethylenebis(3,6-dimethoxy-1,4-benzoquinone)] | 3.4 | 3.8 |  |  | 37 | 77 | 5 | -10.4 | -16 |  |  |
| COC1=CC(=O)C(OC)=C(CCCCCCCCCCC2=C(OC)C(=O)C=C(OC)C2=O)C1=O [Test Compound No. 14, 2,2'-Decamethylenebis(3,6-dimethoxy-1,4-benzoquinone)] | 4.5 | 29.2 |  |  | 78 | 89 | 34 | -12.6 | -23.5 |  |  |
| COC1=CC(=O)C(OC)=C(CCCCCCCCC2=C(OC)C(=O)C=C(OC)C2=O)C1=O [Test Compound No. 12, 2,2'-Octamethylenebis(3,6-dimethoxy-1,4-benzoquinone)] | 26.9 | 71.7 |  |  | 72 | 87 | 36 | 2.4 | -2.2 |  |  |
| COC1=CC(=O)C(OC)=C(CCCCCC2=C(OC)C(=O)C(C)=C(OC)C2=O)C1=O [Test Compound No. 18, 2,5-Dimethoxy-3-methyl-6-[5-(2,5-dimethoxy-1,4-benzoquinon-3-yl)pentyl]-1,4-benzoquinone] | 62.9 | 91.9 |  |  | 33 | 53 | 17 | 14.4 | 8.3 |  |  |
| CCCCC#CCCCCCC1=C(OC)C(=O)C=C(OC)C1=O [compound 30] |  |  | 23.8 | 73.4 | 39 | 75 |  |  |  | 92 | 91 |
| CCCC/C=C\CCCCCC1=C(OC)C(=O)C=C(OC)C1=O [Test Compound No. 33, 2,5-Dimethoxy-3-(Z-6-undecenyl)-1,4-benzoquinone] |  |  | 19.6 | 33.4 | 51 | 87 |  |  |  | 91 | 89 |
| COC1=C(C)C(=O)C(OC)=C(CCCCCC2=C(OC)C(=O)C(C)=C(OC)C2=O)C1=O [Test Compound No. 17, 2,2'-Pentamethylenebis(3,6-dimethoxy-5-methyl-1,4-benzoquinone)] | 56.3 | 83.9 |  |  | 79 | 89 | 13 |  |  |  |  |
| CCCC/C=C\CCCCCCCC1=C(OC)C(=O)C=C(OC)C1=O [Test Compound No. 34, 2,5-Dimethoxy-3-(Z-8-tridecenyl)-1,4-benzoquinone] |  |  | 3.2 | 0.8 | 26 | 37 |  |  |  | 73 | 89 |
